Data from article PMC8005375, “Massiliamide, a cyclic tetrapeptide with potent tyrosinase inhibitory properties from the Gram-negative bacterium Massilia albidiflava DSM 17472^T” (The Journal of Antibiotics, 2020).
Square brackets hold non-standard residues; d marks the D form. Peptide text beside a SMILES is read from it.

Experiments:
HeLa cell line = HeLa cell line at 64 µg ml^−1; resazurin assay
Procedure: The cytotoxicity test against the HeLa human cervical carcinoma cell line was performed in RPMI cell culture medium supplemented with 10% fetal bovine serum using the 7-hydroxy-3H-phenoxazin-3-one-10-oxide (resazurin) assay. A twofold serial dilution of the test compounds was prepared in duplicates in a microtiter plate and seeded with trypsinized HeLa cells to a final cell concentration of 1 × 10^4 cells per well. After 24 h incubation at 37°C, 5 % CO2, 95% relative humidity, resazurin was added at a final concentration of 200 µM, and cells were again incubated overnight. Cell viability was assessed by determining the reduction of resazurin to the fluorescent resorufin. Fluorescence was measured in a TECAN M200 reader at an excitation wavelength of 560 nm and an emission wavelength of 600 nm in relation to the untreated control.

tyrosinase = tyrosinase (Agaricus bisporus, UniProt C7FF04); assay: Tyrosinase inhibition assay (kit MAK257); type: biochemical; details: comparison of IC50 values with arbutin and kojic acid
tyrosinase, sequence (C7FF04 whole entry): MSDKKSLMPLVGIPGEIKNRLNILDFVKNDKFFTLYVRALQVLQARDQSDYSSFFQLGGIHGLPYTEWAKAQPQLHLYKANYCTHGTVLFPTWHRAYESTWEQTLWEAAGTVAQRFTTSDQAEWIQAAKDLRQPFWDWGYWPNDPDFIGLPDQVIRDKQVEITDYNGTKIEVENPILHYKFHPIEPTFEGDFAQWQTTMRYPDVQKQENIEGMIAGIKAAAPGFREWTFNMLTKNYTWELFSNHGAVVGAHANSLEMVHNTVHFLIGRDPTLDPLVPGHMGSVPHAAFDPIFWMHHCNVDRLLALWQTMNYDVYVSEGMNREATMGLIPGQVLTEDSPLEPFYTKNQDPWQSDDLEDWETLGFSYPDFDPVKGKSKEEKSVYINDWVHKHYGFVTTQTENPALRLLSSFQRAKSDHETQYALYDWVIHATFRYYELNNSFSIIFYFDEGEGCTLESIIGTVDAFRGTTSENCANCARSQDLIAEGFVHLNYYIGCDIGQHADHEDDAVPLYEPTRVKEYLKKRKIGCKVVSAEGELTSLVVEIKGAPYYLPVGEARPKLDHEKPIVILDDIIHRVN
Procedure: In brief, 20 µL massiliamide (1) with various concentrations (0.05–5 µM) was added into 50 µL tyrosinase enzyme solutions that contained 48 µL MAK257A buffer and 2 µL of tyrosinase. The mixture was then incubated for 10 min at 25°C, followed by the addition of 30 µL substrate solution, containing 23 µL MAK257A buffer, 2 µL tyrosinase substrate, and 5 µL tyrosinase enhancer. The final reaction mixture was then homogenized by shaking and immediately monitored at 510 nm using a Tecan Infinite 200 Pro microplate reader, applying the kinetic mode for 30-60 min. […] Each measurement was conducted in three independent replications.

S. aureus ATCC 2921 = details: cation-adjusted Mueller-Hinton medium, twofold serial dilution (CLSI), 5 × 10^5 CFU per mL, overnight, 37°C
Procedure: The minimal inhibitory concentration (MIC) was determined in a cation-adjusted Mueller-Hinton medium that contains casein, beef extract and starch by using a twofold serial dilution method according to the standards and guidelines of the Clinical and Laboratory Standards Institute (CLSI) [10]. In brief, a twofold serial dilution of the test compound was prepared in microtiter plates and seeded using a final inoculum of bacteria of 5 × 10^5 colony-forming units per mL.

E. faecium BM 4147-1 = details: cation-adjusted Mueller-Hinton medium, twofold serial dilution (CLSI), 5 × 10^5 CFU per mL, overnight, 37°C
Procedure: (§1) The minimal inhibitory concentration (MIC) was determined in a cation-adjusted Mueller-Hinton medium that contains casein, beef extract and starch by using a twofold serial dilution method according to the standards and guidelines of the Clinical and Laboratory Standards Institute (CLSI). In brief, a twofold serial dilution of the test compound was prepared in microtiter plates and seeded using a final inoculum of bacteria of 5 × 10^5 colony-forming units per mL. […] The strain panel included representative species of nosocomial pathogens, which are known as “ESKAPE” bacteria. Specifically, the following strains were used: Enterococcus faecium BM 4147–1, Staphylococcus aureus ATCC 29213, Klebsiella pneumoniae ATCC 12657, Acinetobacter baumannii 09987, Pseudomonas aeruginosa ATCC 27853 and Enterobacter aerogenes ATCC 13048. Bacillus subtilis 168 and Escherichia coli ATCC 25922 were used as further reference strains. The ATCC strains were provided by the American Type Culture Collection. A. baumannii 09987 was obtained from the University of Bonn, Germany.

[1] = system: strain panel of "ESKAPE" bacteria, Bacillus subtilis 168 and Escherichia coli ATCC 25922; details: broth microdilution, up to the highest concentration tested (64 µg ml^−1)
Procedure: as §1

E. coli ATCC 25922 = details: cation-adjusted Mueller-Hinton medium, twofold serial dilution (CLSI), 5 × 10^5 CFU per mL, overnight, 37°C
Procedure: as §1

P. aeruginosa ATCC 27853 = details: cation-adjusted Mueller-Hinton medium, twofold serial dilution (CLSI), 5 × 10^5 CFU per mL, overnight, 37°C
Procedure: as §1

E. aerogenes ATCC 13048 = details: cation-adjusted Mueller-Hinton medium, twofold serial dilution (CLSI), 5 × 10^5 CFU per mL, overnight, 37°C
Procedure: as §1

K. pneumonia ATCC 12657 = details: cation-adjusted Mueller-Hinton medium, twofold serial dilution (CLSI), 5 × 10^5 CFU per mL, overnight, 37°C
Procedure: as §1

B. subtilis 168 = details: cation-adjusted Mueller-Hinton medium, twofold serial dilution (CLSI), 5 × 10^5 CFU per mL, overnight, 37°C
Procedure: as §1

A. baumannii 09987 = details: cation-adjusted Mueller-Hinton medium, twofold serial dilution (CLSI), 5 × 10^5 CFU per mL, overnight, 37°C
Procedure: as §1

SMILES: CC(C)[C@H]1NC(=O)[C@@H]2CCCN2C(=O)[C@@H](Cc2ccc(O)cc2)NC(=O)[C@@H]2CCCN2C1=O [Massiliamide (1)] (cyclo(P[dY]P[dV]))
- Cytotoxicity (in words) (HeLa cell line): no cytotoxicity
- Tyrosinase inhibition compared with positive controls (in words) (tyrosinase): surpassed readily the activities of the positive controls arbutin and kojic acid
- MIC (S. aureus ATCC 2921): > 64 µg/mL
- MIC (E. faecium BM 4147-1): > 64 µg/mL
- Antimicrobial activity (in words) [1]: inactive up to the highest concentration tested
- MIC (E. coli ATCC 25922): > 64 µg/mL
- MIC (P. aeruginosa ATCC 27853): > 64 µg/mL
- MIC (E. aerogenes ATCC 13048): > 64 µg/mL
- MIC (K. pneumonia ATCC 12657): > 64 µg/mL
- MIC (B. subtilis 168): > 64 µg/mL
- MIC (A. baumannii 09987): > 64 µg/mL
